Publication PMC7956753, “Development of ^18F-Labeled Radiotracers for PET Imaging of the Adenosine A2A Receptor: Synthesis, Radiolabeling and Preliminary Biological Evaluation” (International Journal of Molecular Sciences, 2021)

Experiments:
[1] = Lipophilicity (LogD7.4), shake-flask method in n-octanol/PBS; format: physicochemical; details: pH 7.4, n-octanol-PBS, RT, n = 3
Method: (§1) The chemical stability of [^18F]PPY1 and [^18F]PPY2 was investigated in isotonic saline, phosphate-buffered saline (PBS, pH 7.4) and n-octanol by incubation at 37 °C. Samples were taken at 15, 30 and 60 min of incubation time and analyzed by radio-TLC and radio-HPLC. LogD7.4 values of [^18F]PPY1 and of [^18F]PPY2 were experimentally determined in n-octanol/PBS at RT by the shake-flask method. The measurements were performed in triplicate.

[2] = In vitro chemical stability in saline, PBS and n-octanol; format: physicochemical; details: 37 °C up to 60 min
Method: as §1

[3] = In vivo metabolism (radiometabolite analysis of plasma and brain by radio-HPLC); details: CD-1 mice, i.v., 30 min p.i., n = 2
Method: The radiotracer was administered i.v. as bolus in awake CD-1 mice (40 MBq [^18F]PPY1; 30 MBq [^18F]PPY2; n = 2, respectively). At 30 min post injection (p.i.), blood samples were taken retroorbitally from the anesthetized animals. Plasma was separated by centrifugation at 8000 rpm at RT for 1 min (Centrifuge 5418, Eppendorf Vertrieb Deutschland GmbH, Wesseling-Berzdorf, Germany), and brain homogenized in 1 mL water on ice (10 strokes of a PTFE plunge at 1000 rpm in a borosilicate glass cylinder; Potter S Homogenizer; B. Braun Melsungen AG, Melsungen, Germany). For protein precipitation and extraction an ice-cold mixture of acetone/water (4/1; v/v) was used in a ratio of 4:1 (v/v) of solvent to plasma or brain homogenate, respectively. The samples were vortexed for 3 min, equilibrated on ice for 5 min, and centrifuged for 5 min at 10,000 rpm. After separating the supernatant, the precipitates were washed with 100 µL of the solvent mixture and subjected to the same procedure. The combined supernatants were concentrated at 75 °C under nitrogen flow to a final volume of approx. 100 µL and analyzed by analytical radio-HPLC (see section quality control). To determine the percentage of activity in the supernatants compared to total activity, aliquots of each step as well as the precipitates were quantified by a gamma counter (Wallac Wizard 1480; PerkinElmer, Turku, Finland).

A2AR = molecular target: T1, A2AR (Mus musculus, UniProt Q60613); assay: In vitro autoradiography on mouse brain slices; format: binding, CD-1 mice; details: for fraction of total binding displaced by ZM241385 in striatum (specific binding): 10 µM ZM241385
T1 construct: Brains of CD-1 mice frozen in isopentane were cut using a cryostat; from tissue; host or cells: CD-1 mouse brain sections
T1 sequence (Q60613 whole entry): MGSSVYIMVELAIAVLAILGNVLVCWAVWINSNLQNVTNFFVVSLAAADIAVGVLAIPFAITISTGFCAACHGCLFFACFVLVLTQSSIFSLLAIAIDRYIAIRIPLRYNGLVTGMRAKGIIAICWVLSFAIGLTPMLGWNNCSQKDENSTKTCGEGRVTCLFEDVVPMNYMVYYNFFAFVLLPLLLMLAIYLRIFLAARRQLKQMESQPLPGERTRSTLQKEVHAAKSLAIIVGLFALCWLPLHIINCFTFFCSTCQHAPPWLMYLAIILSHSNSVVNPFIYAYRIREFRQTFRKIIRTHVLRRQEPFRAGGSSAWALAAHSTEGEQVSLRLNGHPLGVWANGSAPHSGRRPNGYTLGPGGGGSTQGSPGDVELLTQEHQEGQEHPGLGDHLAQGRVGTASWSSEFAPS
Method: Brains of CD-1 mice frozen in isopentane were cut using a cryostat, thaw-mounted onto microscope slides, and after air-drying stored at −80 °C until use. Briefly, the brain sections were dried in a stream of cold air, and pre-incubated in 50 mM TRIS-HCl buffer (pH 7.4, 100 mM NaCl, 5 mM MgCl2, 1 mM EDTA) containing 1 µU/mL adenosine deaminase (ADA) for 15 min at RT. Afterwards, brain sections were incubated with 0.24 MBq/mL of [^18F]PPY1 (0.2 nM) or 0.26 MBq/mL of [^18F]PPY2 (5.1 nM) in buffer for 90 min at RT. Non-specific binding was determined in the presence of 10 µM ZM241385. Displacement of both radiotracers was evaluated with 10 µM PPY1 and PPY2, respectively. Subsequently, the sections were washed twice for 5 min in ice-cold TRIS-HCl buffer, and dipped for 5 s in ice-cold deionized water. The sections were rapidly dried in a stream of cold air before being exposed overnight on an imaging plate. Developed autoradiographs were analyzed in a phosphor imager (HD-CR 35, Duerr NDT GmbH, Bietigheim-Bissingen, Germany). Quantification was performed by using 2D-densitometric analysis (AIDA 2.31 software, raytest Isotopenmessgeräte GmbH, Straubenhardt, Germany).

[4] = PET/MR imaging (brain uptake and organ distribution); format: in vivo; details: CD-1 mice; for SUV60 min bladder / SUV60 min small intestine: 60 min; for maximum SUV ratio of striatum-to-cerebellum: after 4 min; for initial brain uptake, standardized uptake value (SUV): between 2 and 3 min; for initial uptake in striatum and cerebellum: followed by a fast washout
Method: For the time of the experiments, CD-1 mice were kept in a dedicated climatic chamber with free access to water and food under a 12:12 h dark:light cycle at a constant temperature (24 °C). The animals were anaesthetized (anesthesia unit U-410; agntho’s; Lidingö; Sweden) with isoflurane (1.8%, 0.35 L/min) delivered in a 60% oxygen/40% air mixture (Gas Blender 100 Series, MCQ instruments, Rome, Italy) and maintained at 37 °C with a thermal bed system. The formulated radiotracer was injected into the tail vein ([^18F]PPY1: 3.2–4.3 MBq in 150 µL isotonic saline and <1% EtOH/DMSO; Am: 150 GBq/µmol; […]; Am: 80 GBq/µmol) followed by a 60 min PET/MR scan (PET/MR 1Tesla; nanoScan®, MEDISO Medical Imaging Systems, Budapest, Hungary). Each PET image was corrected for random coincidences, dead time, scatter and attenuation (AC), based on a whole body (WB) MR scan. The list mode data was sorted into sinograms using a framing scheme of 12 × 10 s, 6 × 30 s, 5 × 300 s, […]. The reconstruction parameters for the list mode data were 3D-ordered subset expectation maximization (OSEM), 4 iterations, 6 subsets, energy window: 400–600 keV, coincidence mode: 1–5, ring difference: 81. The mice were positioned prone in a special mouse bed (heated up to 37 °C), with the head fixed to a mouth piece for the anesthetic gas supply with isoflurane in 40% air and 60% oxygen (anesthesia unit: U-410, agnthos, Lidingö, Sweden; Gas blender: MCQ, Rome, Italy). The PET data were collected by a continuous WB scan during the entire investigation. Following the 60 min PET scan a T1 weighted WB gradient echo sequence (TR/TE: 20/6.4 ms, NEX: 1, FA: 25, FOV: 64 × 64 mm, matrix: 128 × 128, slice thickness: 0.5 mm) was performed for AC and anatomical orientation. Image registration and evaluation of the volume of interest (VOI) was done with PMOD 3.9 (PMOD technologies LLC, Zurich, Switzerland). The respective brain regions were identified using the mouse brain atlas template Ma-Benveniste-Mirrione-FDG. Spherical VOI with diameters of 1 to 2 mm were placed at the center of the liver, stomach, and spleen. Small intestine, kidney, and bladder VOI were delineated from the PET signal. Heart wall and blood were delineated from the T1 weighted image avoiding spill over from neighboring organs. The activity data is expressed as mean SUV of the overall VOI.

With `Nc1nc(-c2ccco2)c2cnn(Cc3ccccc3[18F])c2n1` [[^18F]PPY2] the logD [1] was 2.01 ± 0.16, the “Stability in saline, PBS and n-octanol” value [2] was “proven” and the “intact radiotracer in brain, of total activity” value [3] was 83%. For the same compound, the “intact radiotracer in plasma, of total activity” value [3] was 21%, the “intact radiotracer in brain, of total activity” value ([3]; listed as [18F]PPY2) was “more than 76%” and the “distribution of radiotracer binding in mouse brain” value (A2AR) was “observed in the striatum”. The “fraction of total binding displaced by ZM241385 in striatum (specific binding)” value (A2AR) was 62%, the “initial SUV in heart, spleen, stomach and liver” value [4] was under 3 SUV and the “specific binding in striatum in vivo (PET)” value [4] was “lack of specific binding”. The SUV60 min bladder [4] was 18.5 SUV, the “SUV60 min small intestine” value [4] was 6.7 SUV and the “maximum SUV ratio of striatum-to-cerebellum” value [4] was 1.3. The “initial brain uptake, standardized uptake value (SUV)” value [4] was 1.2–1.4 SUV and the “initial uptake in striatum and cerebellum” value [4] was ~ 1.3 SUV.
For `Nc1nc(-c2ccco2)c2cnn(Cc3ccc([18F])cc3)c2n1` [[^18F]PPY1], the logD [1] was 1.59 ± 0.15, the “Stability in saline, PBS and n-octanol” value [2] was “proven” and the “intact radiotracer in plasma, of total activity” value [3] was 13%. For the same compound, the “distribution of radiotracer binding in mouse brain” value (A2AR) was “displaceable binding was detected in various brain regions”, the “fraction of total binding displaced by ZM241385 in striatum (specific binding)” value (A2AR) was 42% and the “initial SUV in heart, spleen, stomach and liver” value [4] was under 3 SUV. For the same compound, the “specific binding in striatum in vivo (PET)” value [4] was “lack of specific binding”, the SUV60 min bladder [4] was 8.2 SUV and the “SUV60 min small intestine” value [4] was 21.9 SUV. The “maximum SUV ratio of striatum-to-cerebellum” value [4] was 1.5, the “initial brain uptake, standardized uptake value (SUV)” value [4] was 1.2–1.4 SUV and the “initial uptake in striatum and cerebellum” value [4] was ~ 1.3 SUV.
